Measurements from publication PMC10542255, “A phase 1 trial of fuzuloparib in combination with apatinib for advanced ovarian and triple-negative breast cancer: efficacy, safety, pharmacokinetics and germline BRCA mutation analysis” (BMC Medicine, 2023).

How the values were obtained:
[1] = human, in vivo
Description: The study used a standard 3 + 3 dose escalation design. The starting dose of fuzuloparib was 40 mg twice daily (bid) in combination with a fixed dose of apatinib at 250 mg once daily (qd); fuzuloparib could be dose escalated in 20 mg increments to up to 100 mg. An additional dose level of fuzuloparib 80 mg bid plus apatinib 375 mg qd was planned after assessment of the regimen of fuzuloparib 80 mg bid plus apatinib 250 mg qd. If dose escalation of fuzuloparib to 100 mg was completed, dose escalation for apatinib was initiated with two dose level planned: 375 mg qd and 500 mg qd (with fuzuloparib fixed at 100 mg bid). During dose escalation, the next-higher dose level was opened if less than one-third of patients in the previous dose level experienced a dose-limiting toxicity (DLT). Based on preliminary safety and efficacy data in the dose-escalation cohort, dose levels for PK-expansion were selected, with a total of 8–12 patients enrolled in each level. All patients received a single dose of oral fuzuloparib on day 1 and a single dose of oral apatinib on day 4 in cycle 0 (6 days in total), followed by continuous dosing of fuzuloparib and apatinib in 28-day cycles starting on cycle 1 day 1. Treatment continued until disease progression, intolerable toxicity, or patient withdrawal.
Pharmacokinetic sampling for single dose of fuzuloparib and apatinib was done on day 1 and day 4 (pre-dose and 0.5, 1, 2, 3, 4, 8, 12, 24, 48 h post-dose) of cycle 0, respectively; sampling for continuous dosing of the combination therapy was done on days 1 (pre-dose and 0.5, 1, 2, 3, 4, 8, 12, 24 h post-dose), 8 (pre-dose), 15 (pre-dose), 22 (pre-dose) of cycle 1, and day 1 (pre-dose and 0.5, 1, 2, 3, 4, 8, 12, 24 h post-dose) of cycle 2.
All enrolled patients who received at least one dose of study drug were included in the efficacy and safety analysis. […] Time-to-event endpoints were estimated using the Kaplan–Meier method, with the 95% CIs calculated using the Brookmeyer and Crowley method. PK parameters were calculated using the WinNonlin noncompartmental model. […]

[2] = test system: gBRCAmut, platinum-sensitive OC; set-up: method as in PMID 33558426; conditions: fuzuloparib monotherapy, phase 2, gBRCAmut platinum-sensitive OC; cited from earlier work

Dose dependence of apatinib plasma exposure (AUC0-∞) [1]	Reduction of apatinib AUC0-24 h (cycle 2 day 1) vs AUC0-∞ after single apatinib monotherapy dose (cycle 0 day 4) [1]	Dose dependence of fuzuloparib plasma exposure (AUC0-12 h) [1]	Structure (SMILES)	Median PFS [2]	ORR [2]
increased in a dose-dependent manner	47.7%-65.0%	–	N#CC1(c2ccc(NC(=O)c3cccnc3NCc3ccncc3)cc2)CCCC1 [apatinib]	–	–
–	–	increased in a dose-dependent manner	O=C(c1cc(Cc2n[nH]c(=O)c3ccccc23)ccc1F)N1CCn2nc(C(F)(F)F)nc2C1 [fuzuloparib]	12.0 months	69.9%
